{"source": "patent US20100216825A1", "about": "“FUNGICIDAL COMPOSITIONS” (SYNGENTA CROP PROTECTION, INC., priority 2006, published 2010)", "assay_type_in_all_cases": "cell-based", "key": {"Botrytis cinerea": {"tested_on": "Botrytis cinerea", "assay": "Action against Botrytis cinerea, growth inhibition in nutrient broth (microtiter plate, photometric)", "conditions": "24° C., 48-72 hrs"}, "Pyricularia oryzae": {"tested_on": "Pyricularia oryzae", "conditions": "24° C., 72 hrs"}, "Alternaria solani": {"tested_on": "Alternaria solani", "assay": "Action against Alternaria solani (early blight), growth inhibition in nutrient broth (microtiter plate, photometric)", "conditions": "24° C., 48 hrs"}, "Pyrenophora teres": {"tested_on": "Pyrenophora teres", "assay": "Action against Pyrenophora teres (net blotch), growth inhibition in nutrient broth (microtiter plate, photometric)", "conditions": "24° C., 48 hrs"}, "Pythium ultimum": {"tested_on": "Pythium ultimum", "assay": "Action against Pythium ultimum (damping off), growth inhibition in nutrient broth (microtiter plate, photometric)", "conditions": "each active ingredient at 0.67 ppm [mg/L] final medium; 24° C., 48 hrs"}, "[1]": {"conditions": "each active ingredient at 0.02 ppm [mg/L] final medium"}}, "note": "Values joined by “and” are separate entries in the source; they are usually repeats but may differ in a detail not shown here. Equal values may be shown once. Read-outs that look alike come from different tables or passages of the source.", "data": [{"smiles": "CC(C)C1C2CCC1c1c(NC(=O)c3cn(C)nc3C(F)F)cccc12", "note": "(racemic) [Cpd I, 3-difluoromethyl-1-methyl-1H-pyrazole-4-carboxylic acid (9-isopropyl-1,2,3,4-tetrahydro-1,4-methano-naphthalen-5-yl)-amide]", "values": [{"measurement": "Observed control in % (% Cobs) observed", "setting": "Botrytis cinerea; [1]", "result": 17, "unit": "%"}, {"measurement": "Observed control in % (% Cobs) observed", "setting": "Botrytis cinerea; each active ingredient at 0.07 ppm [mg/L] final medium", "result": 61, "unit": "%"}, {"measurement": "Observed control in % (% Cobs) observed", "setting": "Botrytis cinerea; each active ingredient at 0.22 ppm [mg/L] final medium", "result": 74, "unit": "%"}, {"measurement": "Observed control in % (% Cobs) observed", "setting": "Botrytis cinerea; each active ingredient at 0.67 ppm [mg/L] final medium", "result": 79, "unit": "%"}, {"measurement": "Observed control in % (% Cobs) observed", "setting": "Pyricularia oryzae; each active ingredient at 0.01 ppm [mg/L] final medium", "result": 11, "unit": "%"}, {"measurement": "Observed control in % (% Cobs) observed", "setting": "Pyricularia oryzae; [1]", "result": 35, "unit": "%"}, {"measurement": "Observed control in % (% Cobs) observed", "setting": "Alternaria solani; each active ingredient at 0.004 ppm [mg/L] final medium", "result": "1% and 2%"}, {"measurement": "Observed control in % (% Cobs) observed", "setting": "Alternaria solani; each active ingredient at 0.008 ppm [mg/L] final medium", "result": "5% and 2%"}, {"measurement": "Observed control in % (% Cobs) observed", "setting": "Alternaria solani; each active ingredient at 0.016 ppm [mg/L] final medium", "result": "9% and 12% and 3%"}, {"measurement": "Observed control in % (% Cobs) observed", "setting": "Alternaria solani; [1]", "result": 46, "unit": "%"}, {"measurement": "Observed control in % (% Cobs) observed", "setting": "Pyrenophora teres; each active ingredient at 0.5 ppm [mg/L] final medium", "result": 70, "unit": "%"}, {"measurement": "Observed control in % (% Cobs) observed", "setting": "Pyrenophora teres; each active ingredient at 1 ppm [mg/L] final medium", "result": 79, "unit": "%"}, {"measurement": "Observed control in % (% Cobs) observed", "setting": "Pythium ultimum", "result": 0, "unit": "%"}]}]}
